In patent US8691865B2 (AbbVie Inc., priority 2008, dated 2014) one finds IC50 data, which are given here for 30 compounds.

SMILES strings stand for the structures. pIC50: −log10 of the molar value.

One may read the pIC50 as −log10 of the IC50, conventionally taken in molar units. The IC50 is the concentration needed to halve the response being measured.

Chain of human Cav2.2 (Q00975 whole entry): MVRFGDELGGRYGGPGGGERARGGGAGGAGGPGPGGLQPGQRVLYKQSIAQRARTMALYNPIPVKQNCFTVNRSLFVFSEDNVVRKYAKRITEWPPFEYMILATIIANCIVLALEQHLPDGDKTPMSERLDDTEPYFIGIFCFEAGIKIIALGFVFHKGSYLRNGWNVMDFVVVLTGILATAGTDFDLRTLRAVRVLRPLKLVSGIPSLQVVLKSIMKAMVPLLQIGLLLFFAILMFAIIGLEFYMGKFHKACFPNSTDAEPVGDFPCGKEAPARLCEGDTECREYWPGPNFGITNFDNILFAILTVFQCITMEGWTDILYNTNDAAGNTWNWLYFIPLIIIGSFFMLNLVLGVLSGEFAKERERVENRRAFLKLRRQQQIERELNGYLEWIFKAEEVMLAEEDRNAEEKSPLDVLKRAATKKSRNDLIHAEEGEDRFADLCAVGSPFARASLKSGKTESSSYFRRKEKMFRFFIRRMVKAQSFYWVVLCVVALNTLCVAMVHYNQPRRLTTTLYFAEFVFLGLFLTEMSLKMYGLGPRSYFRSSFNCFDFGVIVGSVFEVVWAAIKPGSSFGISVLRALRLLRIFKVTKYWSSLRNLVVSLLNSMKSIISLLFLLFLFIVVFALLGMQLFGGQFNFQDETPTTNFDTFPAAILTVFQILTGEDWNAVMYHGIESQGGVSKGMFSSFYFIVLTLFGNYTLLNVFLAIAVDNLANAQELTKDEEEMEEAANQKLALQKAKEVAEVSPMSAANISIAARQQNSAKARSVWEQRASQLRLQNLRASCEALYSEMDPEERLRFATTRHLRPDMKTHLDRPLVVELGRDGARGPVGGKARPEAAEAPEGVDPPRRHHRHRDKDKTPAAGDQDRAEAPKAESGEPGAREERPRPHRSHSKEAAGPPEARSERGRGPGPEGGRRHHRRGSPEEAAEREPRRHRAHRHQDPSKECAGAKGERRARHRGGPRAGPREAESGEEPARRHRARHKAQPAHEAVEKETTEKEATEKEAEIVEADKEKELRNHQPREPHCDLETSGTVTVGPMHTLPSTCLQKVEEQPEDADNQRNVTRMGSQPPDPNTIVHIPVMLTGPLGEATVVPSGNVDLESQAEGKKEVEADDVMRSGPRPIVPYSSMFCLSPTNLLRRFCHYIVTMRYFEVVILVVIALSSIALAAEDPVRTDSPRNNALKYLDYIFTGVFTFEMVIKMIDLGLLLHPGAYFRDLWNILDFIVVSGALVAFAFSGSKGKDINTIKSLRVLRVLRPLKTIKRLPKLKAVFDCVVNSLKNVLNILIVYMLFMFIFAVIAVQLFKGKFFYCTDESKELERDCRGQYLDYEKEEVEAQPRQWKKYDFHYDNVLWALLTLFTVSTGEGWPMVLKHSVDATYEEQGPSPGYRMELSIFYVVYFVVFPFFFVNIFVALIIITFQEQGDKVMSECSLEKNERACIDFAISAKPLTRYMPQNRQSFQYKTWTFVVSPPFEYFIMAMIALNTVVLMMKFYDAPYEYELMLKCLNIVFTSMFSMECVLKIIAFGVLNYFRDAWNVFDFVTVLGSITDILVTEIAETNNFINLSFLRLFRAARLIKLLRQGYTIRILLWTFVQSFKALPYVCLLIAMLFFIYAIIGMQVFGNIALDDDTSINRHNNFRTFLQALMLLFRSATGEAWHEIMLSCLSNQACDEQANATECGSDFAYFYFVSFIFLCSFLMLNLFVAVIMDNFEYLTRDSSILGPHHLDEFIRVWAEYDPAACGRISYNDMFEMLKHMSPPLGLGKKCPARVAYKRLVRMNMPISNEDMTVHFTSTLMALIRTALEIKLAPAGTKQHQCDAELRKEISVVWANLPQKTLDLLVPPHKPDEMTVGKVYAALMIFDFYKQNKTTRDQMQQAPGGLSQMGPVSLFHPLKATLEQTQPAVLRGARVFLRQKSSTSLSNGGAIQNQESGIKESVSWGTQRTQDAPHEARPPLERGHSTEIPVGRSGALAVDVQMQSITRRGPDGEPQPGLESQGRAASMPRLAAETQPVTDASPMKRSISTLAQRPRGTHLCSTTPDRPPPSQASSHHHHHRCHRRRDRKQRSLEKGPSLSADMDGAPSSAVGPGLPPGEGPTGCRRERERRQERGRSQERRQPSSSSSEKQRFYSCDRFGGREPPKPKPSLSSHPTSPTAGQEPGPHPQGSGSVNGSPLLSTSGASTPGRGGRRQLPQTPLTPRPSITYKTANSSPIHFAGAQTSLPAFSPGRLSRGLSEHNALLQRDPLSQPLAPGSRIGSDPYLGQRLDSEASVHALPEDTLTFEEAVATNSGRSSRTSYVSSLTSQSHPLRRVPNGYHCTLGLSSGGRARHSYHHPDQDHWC
Chain of human Cav2.2 (P54289 25-956 partner limits assumed): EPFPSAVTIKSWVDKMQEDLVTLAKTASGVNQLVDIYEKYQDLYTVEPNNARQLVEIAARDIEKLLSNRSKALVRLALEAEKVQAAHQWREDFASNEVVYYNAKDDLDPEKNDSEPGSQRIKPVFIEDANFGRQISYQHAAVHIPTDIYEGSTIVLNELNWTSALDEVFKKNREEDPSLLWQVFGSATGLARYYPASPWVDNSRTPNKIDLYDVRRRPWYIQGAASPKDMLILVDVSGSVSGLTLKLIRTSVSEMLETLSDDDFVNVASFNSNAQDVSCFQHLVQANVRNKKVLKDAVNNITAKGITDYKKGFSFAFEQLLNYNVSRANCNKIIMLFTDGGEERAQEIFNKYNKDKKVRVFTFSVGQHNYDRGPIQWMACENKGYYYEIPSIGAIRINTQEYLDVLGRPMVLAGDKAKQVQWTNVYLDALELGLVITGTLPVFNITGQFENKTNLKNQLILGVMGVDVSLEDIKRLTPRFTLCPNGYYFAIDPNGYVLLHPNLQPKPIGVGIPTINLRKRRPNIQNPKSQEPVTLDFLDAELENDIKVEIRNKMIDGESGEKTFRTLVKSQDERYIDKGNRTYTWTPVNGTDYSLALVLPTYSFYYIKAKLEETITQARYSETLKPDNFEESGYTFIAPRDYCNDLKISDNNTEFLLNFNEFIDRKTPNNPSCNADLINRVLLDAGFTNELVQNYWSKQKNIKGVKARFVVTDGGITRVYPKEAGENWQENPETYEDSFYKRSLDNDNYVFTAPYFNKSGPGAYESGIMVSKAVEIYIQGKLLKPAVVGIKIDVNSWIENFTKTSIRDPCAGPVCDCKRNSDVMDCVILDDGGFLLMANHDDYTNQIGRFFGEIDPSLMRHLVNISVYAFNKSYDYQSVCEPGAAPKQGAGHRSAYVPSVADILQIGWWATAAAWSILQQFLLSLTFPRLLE
Chain of human Cav2.2 (P54289 957-1103 partner limits assumed): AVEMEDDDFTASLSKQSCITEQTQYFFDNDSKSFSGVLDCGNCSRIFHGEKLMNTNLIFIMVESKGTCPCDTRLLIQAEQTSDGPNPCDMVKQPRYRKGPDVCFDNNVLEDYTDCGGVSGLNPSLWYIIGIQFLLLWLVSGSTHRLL
Chain of human Cav2.2 (P54284 whole entry partner): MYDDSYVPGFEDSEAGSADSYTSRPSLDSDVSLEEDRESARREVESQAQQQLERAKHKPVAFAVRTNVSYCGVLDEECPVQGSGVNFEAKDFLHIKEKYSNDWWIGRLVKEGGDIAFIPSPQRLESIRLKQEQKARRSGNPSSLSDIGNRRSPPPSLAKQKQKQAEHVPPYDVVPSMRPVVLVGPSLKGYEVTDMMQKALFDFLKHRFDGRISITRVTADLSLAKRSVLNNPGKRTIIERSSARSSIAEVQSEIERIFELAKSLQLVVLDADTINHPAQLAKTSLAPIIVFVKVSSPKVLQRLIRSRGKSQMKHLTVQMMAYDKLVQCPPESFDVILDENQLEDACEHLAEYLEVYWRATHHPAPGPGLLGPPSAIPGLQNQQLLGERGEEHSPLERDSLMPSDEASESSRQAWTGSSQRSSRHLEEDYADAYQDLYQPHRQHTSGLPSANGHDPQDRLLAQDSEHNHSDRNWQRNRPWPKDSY

One assay has as its target human Cav2.2 (Homo sapiens, UniProt Q00975). Nature of the assay: Assessment of calcium channel activity using FLIPR (Ca2+ influx in IMR32 cells).
Conditions: not given
The format is cell-based. The essentials:
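IC50 values derive from nonlinear sigmoidal fitting of percent inhibition, relative to inhibitor-free activity, of Ca2+ influx read by FLIPR. Cells were IMR32 human neuroblastoma, plated at 1−1.2×10^5 per well and grown 48 h at 37 °C.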
With `CCC[C@H](NC)C(=O)N[C@H]1CC[C@@H]2CN(S(=O)(=O)c3ccc(OC)c(OC)c3)C[C@@H]21` [Example 545, N^1-{(3aR,4S,6aS)-2-[(3,4-dimethoxyphenyl)sulfonyl]octahydrocyclopenta[c]pyrrol-4-yl}-N^2-methyl-L-norvalinamide], the pIC50 was below 4.52.
Same read-out and setting: in the case of `CCC[C@H](NC)C(=O)N[C@H]1CC[C@@H]2CN(S(=O)(=O)c3ccco3)C[C@@H]21` [Example 547, N^1-[(3aR,4S,6aS)-2-(2-furylsulfonyl)octahydrocyclopenta[c]pyrrol-4-yl]-N^2-methyl-L-norvalinamide] it was below 4.52; in that of `O=C(N[C@H]1CC[C@@H]2CN(c3cccc(C(F)(F)F)n3)C[C@@H]21)c1ccccc1O` [Example 562, 2-hydroxy-N-{(3aR,4S,6aS)-2-[6-(trifluoromethyl)pyridin-2-yl]octahydrocyclopenta[c]pyrrol-4-yl}benzamide], 5.77.
On the same count and under the same terms, in the case of `O=C(N[C@H]1CC[C@@H]2CN(c3cccc(C(F)(F)F)n3)C[C@@H]21)c1ccccc1F` [Example 563, 2-fluoro-N-{(3aR,4S,6aS)-2-[6-(trifluoromethyl)pyridin-2-yl]octahydrocyclopenta[c]pyrrol-4-yl}benzamide] it was 5.88.
As to `O=C(N[C@H]1CC[C@@H]2CN(c3cccc(C(F)(F)F)n3)C[C@@H]21)c1cccc(F)c1` [Example 564, 3-fluoro-N-{(3aR,4S,6aS)-2-[6-(trifluoromethyl)pyridin-2-yl]octahydrocyclopenta[c]pyrrol-4-yl}benzamide], the pIC50 is 6.47.
On the same count and under the same terms, in the case of `O=C(N[C@H]1CC[C@@H]2CN(c3cccc(C(F)(F)F)n3)C[C@@H]21)c1ccc(F)c(F)c1` [Example 565, 3,4-difluoro-N-{(3aR,4S,6aS)-2-[6-(trifluoromethyl)pyridin-2-yl]octahydrocyclopenta[c]pyrrol-4-yl}benzamide] it was 6.09; in that of `O=C(N[C@H]1CC[C@@H]2CN(c3cccc(C(F)(F)F)n3)C[C@@H]21)c1ccc(F)c(Cl)c1` [Example 566, 3-chloro-4-fluoro-N-{(3aR,4S,6aS)-2-[6-(trifluoromethyl)pyridin-2-yl]octahydrocyclopenta[c]pyrrol-4-yl}benzamide], 6.09; in that of `CC(C)C[C@H](O)C(=O)N[C@H]1CC[C@@H]2CN(c3cccc(C(F)(F)F)n3)C[C@@H]21` [Example 567, (2S)-2-hydroxy-4-methyl-N-{(3aR,4S,6aS)-2-[6-(trifluoromethyl)pyridin-2-yl]octahydrocyclopenta[c]pyrrol-4-yl}pentanamide], 6.40.
On the same count and under the same terms, the figure for `O=C(N[C@H]1CC[C@@H]2CN(c3ccc(C(F)(F)F)cn3)C[C@@H]21)c1cc2ccccc2[nH]1` [Example 568, N-{(3aR,4S,6aS)-2-[5-(trifluoromethyl)pyridin-2-yl]octahydrocyclopenta[c]pyrrol-4-yl}-1H-indole-2-carboxamide] is 5.68.
For the compound `O=C(N[C@H]1CC[C@@H]2CN(c3cccc(C(F)(F)F)n3)C[C@@H]21)c1ccc2ccccc2n1` [Example 569, N-{(3aR,4S,6aS)-2-[6-(trifluoromethyl)pyridin-2-yl]octahydrocyclopenta[c]pyrrol-4-yl}quinoline-2-carboxamide], the pIC50 was 6.01.
Turning to `O=C(N[C@H]1CC[C@@H]2CN(c3cccc(C(F)(F)F)n3)C[C@@H]21)c1cc2ccccc2[nH]1` [Example 570, N-{(3aR,4S,6aS)-2-[6-(trifluoromethyl)pyridin-2-yl]octahydrocyclopenta[c]pyrrol-4-yl}-1H-indole-2-carboxamide], the pIC50 is 6.21.
With `O=C(N[C@H]1CC[C@@H]2CN(c3cccc(C(F)(F)F)n3)C[C@@H]21)c1ccc(-c2cccs2)o1` [Example 571, 5-(2-thienyl)-N-{(3aR,4S,6aS)-2-[6-(trifluoromethyl)pyridin-2-yl]octahydrocyclopenta[c]pyrrol-4-yl}-2-furamide], the pIC50 was 5.95.
On the same count and under the same terms, the figure for `Cc1c[nH]c(C(=O)N[C@H]2CC[C@@H]3CN(c4cccc(C(F)(F)F)n4)C[C@@H]32)c1` [Example 572, 4-methyl-N-{(3aR,4S,6aS)-2-[6-(trifluoromethyl)pyridin-2-yl]octahydrocyclopenta[c]pyrrol-4-yl}-1H-pyrrole-2-carboxamide] is 6.00; for `O=C(N[C@H]1CC[C@@H]2CN(c3cccc(C(F)(F)F)n3)C[C@@H]21)c1cc2occc2[nH]1` [Example 574, N-{(3aR,4S,6aS)-2-[6-(trifluoromethyl)pyridin-2-yl]octahydrocyclopenta[c]pyrrol-4-yl}-4H-furo[3,2-b]pyrrole-5-carboxamide] it is 5.86.
Same read-out and setting: in the case of `O=C(N[C@H]1CC[C@@H]2CN(c3cccc(C(F)(F)F)n3)C[C@@H]21)c1cc(Cl)c[nH]1` [Example 575, 4-chloro-N-{(3aR,4S,6aS)-2-[6-(trifluoromethyl)pyridin-2-yl]octahydrocyclopenta[c]pyrrol-4-yl}-1H-pyrrole-2-carboxamide] it was 6.15.
In the case of `Cc1ccc(C(=O)N[C@H]2CC[C@@H]3CN(c4cccc(C(F)(F)F)n4)C[C@@H]32)o1` [Example 576, 5-methyl-N-{(3aR,4S,6aS)-2-[6-(trifluoromethyl)pyridin-2-yl]octahydrocyclopenta[c]pyrrol-4-yl}-2-furamide], the pIC50 is 5.97.
Consider `O=C(N[C@H]1CC[C@@H]2CN(c3cccc(C(F)(F)F)n3)C[C@@H]21)c1cccc(O)c1` [Example 577, 3-hydroxy-N-{(3aR,4S,6aS)-2-[6-(trifluoromethyl)pyridin-2-yl]octahydrocyclopenta[c]pyrrol-4-yl}benzamide], for which the pIC50 was 5.69.
Regarding `CC(C)C[C@@H](O)C(=O)N[C@H]1CC[C@@H]2CN(c3cccc(C(F)(F)F)n3)C[C@@H]21` [Example 578, (2R)-2-hydroxy-4-methyl-N-{(3aR,4S,6aS)-2-[6-(trifluoromethyl)pyridin-2-yl]octahydrocyclopenta[c]pyrrol-4-yl}pentanamide], the pIC50 was 6.00.
On the same count and under the same terms, in the case of `Cc1cnc(C(=O)N[C@H]2CC[C@@H]3CN(c4cccc(C(F)(F)F)n4)C[C@@H]32)cn1` [Example 579, 5-methyl-N-{(3aR,4S,6aS)-2-[6-(trifluoromethyl)pyridin-2-yl]octahydrocyclopenta[c]pyrrol-4-yl}pyrazine-2-carboxamide] it was 5.58.
As to `Cc1oncc1C(=O)N[C@H]1CC[C@@H]2CN(c3cccc(C(F)(F)F)n3)C[C@@H]21` [Example 581, 5-methyl-N-{(3aR,4S,6aS)-2-[6-(trifluoromethyl)pyridin-2-yl]octahydrocyclopenta[c]pyrrol-4-yl}-1,2-oxazole-4-carboxamide], the pIC50 is 5.52.
Still for that read-out and setting: in the case of `O=C(CCC(F)(F)F)N[C@H]1CC[C@@H]2CN(c3cccc(C(F)(F)F)n3)C[C@@H]21` [Example 582, 4,4,4-trifluoro-N-{(3aR,4S,6aS)-2-[6-(trifluoromethyl)pyridin-2-yl]octahydrocyclopenta[c]pyrrol-4-yl}butanamide] it was 6.02; in that of `O=C(N[C@H]1CC[C@@H]2CN(c3cccc(C(F)(F)F)n3)C[C@@H]21)c1cc(C2CC2)n[nH]1` [Example 583, 3-cyclopropyl-N-{(3aR,4S,6aS)-2-[6-(trifluoromethyl)pyridin-2-yl]octahydrocyclopenta[c]pyrrol-4-yl}-1H-pyrazole-5-carboxamide], 5.95.
For the compound `O=C(N[C@H]1CC[C@@H]2CN(c3cccc(C(F)(F)F)n3)C[C@@H]21)[C@H]1CC[C@@H](O)CC1` [Example 584, cis-4-hydroxy-N-{(3aR,4S,6aS)-2-[6-(trifluoromethyl)pyridin-2-yl]octahydrocyclopenta[c]pyrrol-4-yl}cyclohexanecarboxamide], the pIC50 is 5.69.
On the same count and under the same terms, the figure for `O=C(N[C@H]1CC[C@@H]2CN(c3cccc(C(F)(F)F)n3)C[C@@H]21)[C@H](O)C(F)(F)F` [Example 585, (2S)-3,3,3-trifluoro-2-hydroxy-N-{(3aR,4S,6aS)-2-[6-(trifluoromethyl)pyridin-2-yl]octahydrocyclopenta[c]pyrrol-4-yl}propanamide] is 5.82.

Still in this assay, the particulars now being: read-out: IC50 (μM) or percent inhibition (* indicates 3 minute incubation, otherwise 60 minute); IC50; 60 minute pre-incubation with compound; IMR32 cells, 80 mM KCl depolarization.
As for `CCC[C@H](NC)C(=O)N[C@H]1CC[C@@H]2CN(S(=O)(=O)c3ccc(C#N)cc3)C[C@@H]21` [Example 536, N^1-{(3aR,4S,6aS)-2-[(4-cyanophenyl)sulfonyl]octahydrocyclopenta[c]pyrrol-4-yl}-N^2-methyl-L-norvalinamide], the IC50 stood at 8.37 µM.
The same measure, in the same setting: in the case of `CCC[C@H](NC)C(=O)N[C@H]1CC[C@@H]2CN(S(=O)(=O)c3ccc(OC)cc3)C[C@@H]21` [Example 537, N^1-{(3aR,4S,6aS)-2-[(4-methoxyphenyl)sulfonyl]octahydrocyclopenta[c]pyrrol-4-yl}-N^2-methyl-L-norvalinamide] it was 11.3 µM; in that of `CCC[C@H](NC)C(=O)N[C@H]1CC[C@@H]2CN(S(=O)(=O)c3cc(C(F)(F)F)cc(C(F)(F)F)c3)C[C@@H]21` [Example 538, N^1-((3aR,4S,6aS)-2-{[3,5-bis(trifluoromethyl)phenyl]sulfonyl}octahydrocyclopenta[c]pyrrol-4-yl)-N^2-methyl-L-norvalinamide], 3.75 µM; in that of `CCC[C@H](NC)C(=O)N[C@H]1CC[C@@H]2CN(S(=O)(=O)c3ccc(C(C)(C)C)cc3)C[C@@H]21` [Example 543, N^1-{(3aR,4S,6aS)-2-[(4-tert-butylphenyl)sulfonyl]octahydrocyclopenta[c]pyrrol-4-yl}-N^2-methyl-L-norvalinamide], 3.2 µM.
The same measure, in the same setting: the figure for `CCC[C@H](NC)C(=O)N[C@H]1CC[C@@H]2CN(S(=O)(=O)Cc3ccc(C(F)(F)F)cc3)C[C@@H]21` [Example 549, N^2-methyl-N^1-((3aR,4S,6aS)-2-{[4-(trifluoromethyl)benzyl]sulfonyl}octahydrocyclopenta[c]pyrrol-4-yl)-L-norvalinamide] is 2.73 µM; for `CCC[C@H](NC)C(=O)N[C@H]1CC[C@@H]2CN(C(=O)c3cccc(C(F)(F)F)c3)C[C@@H]21` [Example 554, N^2-methyl-N^1-{(3aR,4S,6aS)-2-[3-(trifluoromethyl)benzoyl]octahydrocyclopenta[c]pyrrol-4-yl}-L-norvalinamide] it is 10.3 µM.
